Source: paper PMC4081582, “Enhancing Effect of Borneol and Muscone on Geniposide Transport across the Human Nasal Epithelial Cell Monolayer” (PLoS ONE, 2014)

Assays:
Assay type in all cases: cell-based, human
[1] = tested on: actin; assay: Actin immunostaining of HNEC monolayer (tight junction); settings: 3 h exposure with geniposide 50 µg·mL^−1, vs control
Description: Cells cultured on 12-well polyester membrane Transwell clear inserts were stained for actin. […] Fluorescence was visualized on an epifluorescence microscope (IX-71, Olympus, Japan) using a blue filter and images were taken using the analysis software.

[2] = tested on: HNECs; assay: MTT cytotoxicity assay on HNECs; settings: 24 h
Experimental: The cytotoxicity of the main active ingredients in “Xing Nao Jing” on HNECs was evaluated by the methyl thiazolyl tetrazolium (MTT) colorimetric assay. Briefly, 100 µL of 5×10^4 cells·mL^−1 was seeded into 96-well plates. After 24 h, the medium was removed and replaced with a fresh medium containing increasing concentrations of geniposide, borneol, muscone and their combinations for another 24 h. After that, 15 µL of a 5 mg·mL^−1 MTT solution in 100 µL BEGM was added to each well. After 4 h of incubation, the supernatant was discarded and formazan crystals were dissolved in DMSO followed by vigorous mixing. Control wells were incubated with BEGM only and were treated similarly as above. The optical density was determined at 490 nm with a Multiskan Go microplate reader (Thermo, USA). The percent viability of the cells was determined from the absorbance values considering that of the control as 100%.
The percentage of cell toxicity in the MTT assay was calculated by the following equation (1): [drawing 1]

[3] = tested on: HNECs; assay: Membrane fluidity of HNECs by FRAP
Experimental: The cells were seeded on cell plate at a density of 5×10^4 cells·cm^−2. The above formulation groups were added and the plates were incubated for 3 h at 37 °C in a 5% CO2 incubator. Cells were rinsed with HBSS and stained with NBD-C6-HPC at 2 µg·mL^−1 for 30 min.
A method of fluorescence recovery after photobleaching (FRAP) was used here. After the definition of line scanning position, length and photobleaching position, the monolayer was visualized by a Confocal Laser Scanning Microscope under the following conditions: excitation wavelength of 488 nm, emission wavelength of 530 nm, laser power for fluorescence bleaching of 100%, bleaching time of 0.7 s, scanning frequency of 1.65 s and the total scanning time of 100 s. The fluorescence intensity time-variation at the photobleaching position was recorded and image formation was obtained by confocal tomoscanning.
The membrane fluidity was represented by fluorescence recovery rate (R) which was calculated with the following equation (4): [drawing 4] where F0 is the instant fluorescence value after photobleaching, F1 is the fluorescence value before photobleaching and F2 is the fluorescence recovery value after photobleaching.

[4] = tested on: HNEC monolayer; assay: TEER measurement of HNEC monolayer
Experimental: Transepithelial electrical resistance was measured using an EVOM instrument (Millipore Corporation, USA) to check the monolayer integrity. The TEER of untreated cells and cells treated with borneol and muscone was determined in BEGM:DMEM/F12 (1∶1) before the experiment, after the experiment and after 24 h.

`CC1(C)C2CCC1(C)C(O)C2` (stereo not shown) [borneol, Borneol] was tested, and the “levels of the TJ proteins localized in the cell-cell junctions” value [1] was “decreased”, the “concentration range with no cell cytotoxicity” value [2] was 0 to 300000 ng/mL and the “Fluorescence recovery rate R (%)±SD” value ([3]; Bo 27.8 µg·mL^−1 with Ge 50 µg·mL^−1, 3 h) was 37.08±5.05%. For the same compound, the “Fluorescence recovery rate R (%)±SD” value ([3]; Bo 55.6 µg·mL^−1 with Ge 50 µg·mL^−1, 3 h) was 49.60±4.21 %, the “Fluorescence recovery rate R (%)±SD” value ([3]; Bo 111.2 µg·mL^−1 with Ge 50 µg·mL^−1, 3 h) was 57.33±4.62 % and the “TEER after washing and incubating with BEGM:DMEM/F12 (1∶1) for 24 h” value ([4]; after permeation experiment) was “increased again”. The “TEER decrease during permeation studies, of the initial value” ([4]; borneol 55.6, 111.2 µg·mL^−1, muscone 8.34, 16.68 µg·mL^−1, and combinations, P<0.05) was 10–20%.
